According to US20220257702A1, “STABLE ALBUVIRTIDE COMPOSITIONS” (priority 2019, published 2022):

Experiments:
[1] = Stability of lyophilized albuvirtide compositions upon storage at 25° C. (HPLC); assay type: physicochemical; settings: in words
Experimental: (§1) The liquid compositions having albuvirtide and PB were then lyophilized and their stability were tested. Part of the organic solvent could be removed using reduced-pressure evaporation. Stability of Albuvirtide-PB upon lyophilization, upon storage at 25° C., 6° C. and −20° C. were tested using HPLC. The lyophilized powder of Albuvirtide-PB were kept at 25° C., 6° C. and −20° C. for certain periods of time while their purities were monitored during such periods by HPLC.

[2] = Stability of lyophilized Albuvirtide-PB upon storage at 6° C. (HPLC); assay type: physicochemical; settings: in words
Experimental: as §1

[3] = cited from earlier work
HIV-1 = settings: background statement; cited from earlier work
[4] = Stability of lyophilized Albuvirtide-PB upon storage at −20° C. (HPLC); assay type: physicochemical; settings: in words, Table 6
Experimental: as §1

albuvirtide
purity of albuvirtide during storage for 5 days at 25° C. ([1]; Table 9): barely changed
purity of albuvirtide during storage for 1 month at 25° C. ([1]; Table 11): barely changed
change in purity of albuvirtide during storage for 1 month at 6° C. ([2]; Table 5): equivalent to that during storage at 25 °C for 5 days
purity of albuvirtide during storage for 2 months at 6° C. ([2]; Table 10): barely changed
in vivo half-life [3]: long half-life
concentration at which viral entry is inhibited (HIV-1): low nanomolar concentration
in vitro activity against HIV-1 (HIV-1): in vitro activity against various HIV-1 strains and certain variants that are resistant to enfuvirtide (Fuzeon)
purity of albuvirtide during storage for 3 month at −20° C. [4]: barely changed
